Results taken from patent US4054734A, “Amphotericin complexes containing citric acid and calcium” (priority 1976, dated 1977).

Key:
solubility in methanol = type: physicochemical
Description: The complexes of the present invention are less soluble in methanol than amphotericin B. Forty mg of the complexes of the present invention are soluble in 750 ml of methanol, whereas 100 mg of amphotericin B are soluble in 750 ml of methanol.

[1] = solubility in methanol adjusted to pH 9.5 with triethylamine; type: physicochemical; conditions: pH adjusted to 9.5 with triethylamine

Compound | solubility in methanol (in words) (solubility in methanol; 100 mg in 750 ml of methanol) | amount soluble in methanol (solubility in methanol; in 750 ml of methanol) | solubility in methanol at pH 9.5 (in words) ([1]; 100 mg in 80 ml of methanol) | extent of solubilization in methanol (solubility in methanol; 100 mg added to 750 ml of methanol) | extent of solubility in methanol at pH 9.5 ([1]; 100 mg added to 80 ml of methanol)
C[C@@H]1[C@H](O)[C@@H](C)/C=C/C=C/C=C/C=C/C=C/C=C/C=C/[C@H](O[C@@H]2O[C@H](C)[C@@H](O)[C@H](N)[C@@H]2O)C[C@@H]2O[C@](O)(C[C@@H](O)C[C@@H](O)[C@H](O)CC[C@@H](O)C[C@@H](O)CC(=O)O[C@H]1C)C[C@H](O)[C@H]2C(=O)O [amphotericin B] | completely soluble | 100 mg | completely soluble |  | 
Amphotericin B-Calcium-Oxalic Acid Complex [Example 1] |  |  |  | 40% | 35%
